Results: patent US20260048036A1, “CRYSTALLINE FORMS OF A GLUCOSYLCERAMIDE SYNTHASE INHIBITOR AND USES THEREOF” (ACELINK THERAPEUTICS, INC., priority 2022, published 2026)
“And” between values parts separate entries of the source, which are not always exact repeats. Equal entries are not always repeated.

Molecular target: T1, Glucosylceramide synthase (GCS) (Rattus norvegicus, UniProt Q9R0E0)
T1 construct: The MDCK, K-562, and L6 cell lines all endogenously express GCS enzyme; host or cells: L6 rat skeletal muscle cell lysate
T1 sequence (Q9R0E0 1-394): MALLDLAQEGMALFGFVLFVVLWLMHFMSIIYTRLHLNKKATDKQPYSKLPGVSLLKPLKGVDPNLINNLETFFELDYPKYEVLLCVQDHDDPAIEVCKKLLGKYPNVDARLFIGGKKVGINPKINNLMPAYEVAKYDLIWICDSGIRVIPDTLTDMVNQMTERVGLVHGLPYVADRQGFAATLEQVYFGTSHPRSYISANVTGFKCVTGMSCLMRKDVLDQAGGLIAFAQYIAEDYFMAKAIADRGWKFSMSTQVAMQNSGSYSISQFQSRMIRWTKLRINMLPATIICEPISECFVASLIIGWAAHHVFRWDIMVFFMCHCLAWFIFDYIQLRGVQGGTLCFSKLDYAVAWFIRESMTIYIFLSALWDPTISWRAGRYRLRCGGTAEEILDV
Assay: GCS enzymatic assay with L6 cell lysate
Type: biochemical
Conditions: 0.1 μM, N = 1, N = 2
From the text: In this study, the inventors developed a reliable method to monitor GCS catalytic activity using the fluorescent substrate, C6-NBD-ceramide. The reaction product, C6-NBD-glucosylceramide, could then be detected and quantified by LC-MS/MS. The inventors used this method to test and validate the effect of various GCS inhibitors on GCS enzyme activity from different species.
The MDCK, K-562, and L6 cell lines all endogenously express GCS enzyme and were used to test the effect of various GCS inhibitors on enzyme originating from different species. The GCS enzyme activity was detected by using the fluorescent substrate, C6-NBD-ceramide, and monitoring the formation of the fluorescent reaction product, C6-NBD-glucosylceramide. First, the inventors used cell lysate derived from a canine kidney cell line (MDCK, ATCC Cat #CCL-34™) as the source of GCS and tested the inhibitory activity of several control and test compounds. The inventors then used the human leukemia K-562 cell line (ATCC Cat #[…]) to test the effect of these GCS inhibitors on intact living cells. Finally, a cell lysate derived from a rat skeletal muscle cell line, L6 (ATCC Cat #[…]), was used to test the effect of these GCS inhibitors on rodent GCS enzyme.
GCS activity was evaluated using a GCS enzyme assay derived from MDCK or L6 cell lysates.
MDCK or L6 cell lysates were prepared using M-PER in the presence of a protease inhibitor cocktail. Each 100 mm dish (100% confluent) was lysed with 250 μl of M-PER containing protease inhibitors. Protein concentration was determined using Pierce BCA protein assay kit.
Sixty micrograms of MDCK lysate was incubated with various concentrations of compounds (0.00001 μM-1 μM) in 100 mM Tris buffer (pH 7.5) containing 10 mM MgCl2, 1 mM dithiothreitol, 1 mM EGTA, 2 mM NAD, 100 μM UDP-glucose, 10 μM C6-NBD-ceramide with 35 μM dioleoylphosphatidylcholine/5 μM sulfatide in a final reaction volume of 100 μl at 37° C. for 1 hour. The final concentration of DMSO was 0.1% in both compound treated and DMSO only treated samples. Each individual reaction was terminated with 11 volumes of methanol:acetonitrile (6:5; containing 200 ng/ml Tolbutamide as internal control). After sufficient mixing, reactions were centrifuged at 2000 rpm for 10 mins, supernatant was injected into the LC-MS/MS for analysis.
For the assay with L6 cell lysate, different amounts of L6 cell lysate were used.
The quantitative analysis of C6-NBD-glucosylceramide was performed on a Shimadzu ultra-fast liquid chromatography coupled with API 4000 mass spectrometer. Analyst 1.5 software packages were used to control the LC-MS/MS system, as well as for data acquisition and processing.
The C6-NBD-glucosylceramide reading was normalized first by dividing the peak area of C6-NBD-glucosylceramide with the peak area of the internal standard, and then the amount was calculated according to the standard curve generated in the same assay run. For the cell based assay results, the amount of C6-NBD-glucosylceramide was also normalized by the protein concentration of the cell samples.
To confirm the inhibitory activity of test compounds on GCS from different species, cells from rat were used. First, the presence of GCS activity was verified using various amounts of L6 cell lysate (FIG. 34, Table 26).

## O=C(N[C@H](CN1CCCC1)[C@H](O)c1ccc(OC2CC2)c(Cl)c1)/C(=N/O)c1ccc2cc(Cl)ccc2c1 [Crystalline Form A of Compound 1]
30 μg L6 lysate/reaction
  C6-NBD-Ceramide (Normalized to internal control): 6.69 and 6.31
  C6-NBD-Glucosylceramide Concentration: 9.73 nM and 10.5 nM
  Inhibition: 98.57% and 98.45%
  inhibition at 0.1 µM: > 98%
60 μg L6 lysate/reaction
  C6-NBD-Ceramide (Normalized to internal control): 5.87 and 6.17
  C6-NBD-Glucosylceramide Concentration: 22.5 nM and 26.3 nM
  Inhibition: 97.64%
  inhibition at 0.1 µM: 98%
120 μg L6 lysate/reaction
  C6-NBD-Ceramide (Normalized to internal control): 6.09 and 6.11
  C6-NBD-Glucosylceramide Concentration: 45.8 nM and 44.7 nM
  Inhibition: 96.74%
  inhibition at 0.1 µM: 96.7%
180 μg L6 lysate/reaction
  C6-NBD-Ceramide (Normalized to internal control): 5.15 and 5.12
  C6-NBD-Glucosylceramide Concentration: 54.7 nM and 59.0 nM
  Inhibition: 95.55%
  inhibition at 0.1 µM: 95.9%
240 μg L6 lysate/reaction
  C6-NBD-Ceramide (Normalized to internal control): 5.72 and 5.61
  C6-NBD-Glucosylceramide Concentration: 76.9 nM and 78.2 nM
  Inhibition: 93.51%
  inhibition at 0.1 µM: 93.6%
